Data taken from patent US7825123B2, “Isoxazolo[4,5]pyridin-3-yl-piperazin derivatives useful as modulators of dopamine D3 receptors” (Hoffmann-La Roche Inc., priority 2008, dated 2010).

Molecular target: T1, human D3 dopamine receptor (Homo sapiens, UniProt P35462)
T1 construct: expressed in transfected cells; host or cells: HEK-293 EBNA cells, transient transfection; membrane preparation
Assay: radioligand binding ([3H]-spiperone) to cloned human D3 receptors expressed in HEK-293 EBNA cells
Details: [3H]-spiperone approx. 0.5 nM, HEK-293 EBNA membranes, 1 h at RT; Ki by Cheng-Prusoff
Procedure: The cells were harvested 48 h post-transfection, washed three times with cold PBS and stored at −80° C. prior to use. The pellet was suspended in cold 50 mM Tris-HCl buffer containing 10 mM EDTA (pH 7.4) and homogenized with a Polytron (Kinematica AG, Basel, Switzerland) for 20-30 sec at 12.000 rpm. After centrifugation at 48.000×g for 30 min at 4° C., the pellet was resuspended in cold 10 mM Tris-HCl buffer containing 0.1 mM EDTA (pH 7.4), homogenized, and centrifuged as above. This pellet was further resuspended in a smaller volume of ice cold 10 mM Tris-HCl buffer containing 0.1 mM EDTA (pH 7.4) and homogenized with a Polytron for 20-30 sec at 12.000 rpm. The protein content of this homogenate was determined with the Bio-Rad (Bradford) Protein Assay (Biorad Laboratories GmbH, München, Germany) according to the instructions of the manufacturer using gamma globulin as the standard. This homogenate was stored at −80° C. in aliquots and thawed immediately prior to use.
Aliquots of membrane preparations were thawed at RT, resuspended in assay buffer (50 mM Tris-HCl, 120 mM NaCl, 5 mM MgCl2, 1 mM EDTA, 5 mM KCl, 1.5 mM CaCl2, pH=7.4), homogenized with a Polytron for 20-30 sec at 12.000 rpm and adjusted to a final concentration of approximately 7.5 μg protein/well.
The binding affinity (Ki) of the compounds was determined using radioligand binding. Membranes were incubated in a total volume of 200 μl with a fixed concentration of radioligand (final concentration approximately 0.5 nM [^3H]-spiperone) and ten concentrations of test compound in ranging between 10 μM-0.1 nM for 1 h at RT. […] The nonspecific binding was determined with equally composed reaction mixtures in the presence of 10 μM unlabelled spiperone. Per well 45 μl of Microscint 40 (Perkin Elmer, Schwerzenbach, Switzerland) was added, plates for sealed, shaken for 20 min and counted for 3 min on a Topcount Microplate Scintillation Counter (Canberra Packard SA, Zürich, Switzerland) with quenching correction.
The CPM value for each duplicate of a concentration of competing compound was averaged (y1), then the % specific binding was calculated according to the equation (((y1−non-specific)/(total binding−non-specific))×100). Graphs were plotted with the % specific binding using XLfit, a curve fitting program that iteratively plots the data using Levenburg Marquardt algorithm. The single site competition analysis equation used was y=A+((B−A)/(1+((x/C)^D))), where y is the % specific binding, A is the minimum y, B is the maximum y, C is the IC50, x is the log10 of the concentration of the competing compound and D is the slope of the curve (the Hill Coefficient). […] The affinity constant (Ki) was calculated using the Cheng-Prusoff equation Ki=(IC50/1+([L]/Kd), where [L] is the concentration of radioligand and Kd is the dissociation constant of the radioligand at the receptor as determined by the saturation isotherm.

T1 sequence (P35462 whole entry): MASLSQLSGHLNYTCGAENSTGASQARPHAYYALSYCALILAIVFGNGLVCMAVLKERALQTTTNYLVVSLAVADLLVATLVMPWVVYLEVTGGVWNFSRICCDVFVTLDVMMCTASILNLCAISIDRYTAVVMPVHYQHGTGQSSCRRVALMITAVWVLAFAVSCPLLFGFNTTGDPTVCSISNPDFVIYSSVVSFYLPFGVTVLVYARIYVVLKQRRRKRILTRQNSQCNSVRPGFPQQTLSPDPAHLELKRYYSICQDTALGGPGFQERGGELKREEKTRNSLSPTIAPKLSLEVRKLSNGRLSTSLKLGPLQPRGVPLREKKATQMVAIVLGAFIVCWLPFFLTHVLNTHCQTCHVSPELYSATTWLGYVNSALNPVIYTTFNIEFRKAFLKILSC

**Q.** For `CC(=O)N[C@H]1CC[C@H](CCN2CCN(c3noc4ccncc34)CC2)CC1` [Example 1, N-{trans-4-[2-(4-Isoxazolo[4,5-c]pyridin-3-yl-piperazin-1-yl)-ethyl]-cyclohexyl}-acetamide], which Ki is on record?
**A.** The Ki was 0.0404 µM.

**Q.** Which Ki does the source give for `COCCC(=O)N[C@H]1CC[C@H](CCN2CCN(c3noc4ccncc34)CC2)CC1` [Example 2, N-{trans-4-[2-(4-Isoxazolo[4,5-c]pyridin-3-yl-piperazin-1-yl)-ethyl]-cyclohexyl}-3-methoxy-propionamide] here?
**A.** The Ki was 0.0243 µM.

**Q.** How did the Ki turn out when `CCC(=O)N[C@H]1CC[C@H](CCN2CCN(c3noc4ccncc34)CC2)CC1` [Example 3, N-{trans-4-[2-(4-Isoxazolo[4,5-c]pyridin-3-yl-piperazin-1-yl)-ethyl]-cyclohexyl}-propionamide] was run?
**A.** Its Ki is 0.0124 µM.

**Q.** For `O=C(CC1CC1)N[C@H]1CC[C@H](CCN2CCN(c3noc4ccncc34)CC2)CC1` [Example 4, 2-Cyclopropyl-N-{trans-4-[2-(4-isoxazolo[4,5-c]pyridin-3-yl-piperazin-1-yl)-ethyl]-cyclohexyl}-acetamide], which Ki is on record?
**A.** Its Ki is 0.0154 µM.

**Q.** Which Ki does the source give for `O=C(CF)N[C@H]1CC[C@H](CCN2CCN(c3noc4ccncc34)CC2)CC1` [Example 5, 2-Fluoro-N-{trans-4-[2-(4-isoxazolo[4,5-c]pyridin-3-yl-piperazin-1-yl)-ethyl]-cyclohexyl}-acetamide] here?
**A.** The Ki was 0.043 µM.

**Q.** How did the Ki turn out when `O=C(N[C@H]1CC[C@H](CCN2CCN(c3noc4ccncc34)CC2)CC1)c1ccc(F)cc1` [Example 6, 4-Fluoro-N-{trans-4-[2-(4-isoxazolo[4,5-c]pyridin-3-yl-piperazin-1-yl)-ethyl]-cyclohexyl}-benzamide] was run?
**A.** Its Ki is 0.097 µM.

**Q.** How did the Ki turn out when `O=C(N[C@H]1CC[C@H](CCN2CCN(c3noc4ccncc34)CC2)CC1)c1ccc(F)nc1` [Example 7, 6-Fluoro-N-{trans-4-[2-(4-isoxazolo[4,5-c]pyridin-3-yl-piperazin-1-yl)-ethyl]-cyclohexyl}-nicotinamide] was run?
**A.** Its Ki is 0.063 µM.
